ChEMBL document CHEMBL3991949, “Inhibition of DCPS” (2009)
Calls of active or inactive are those of the source. The calls are words filed in the database; no cut-off is given here.

Experiments:
[1] = target: T1, m7GpppX diphosphatase (Mus musculus, UniProt Q9DAR7); assay: Inhibition of DcpS in human SMN2 promoter driven mouse NSC-34 cells assessed as increase in SMN2 mRNA expression after 18 hrs by RT-PCR analysis
T1 sequence (Q9DAR7 whole entry): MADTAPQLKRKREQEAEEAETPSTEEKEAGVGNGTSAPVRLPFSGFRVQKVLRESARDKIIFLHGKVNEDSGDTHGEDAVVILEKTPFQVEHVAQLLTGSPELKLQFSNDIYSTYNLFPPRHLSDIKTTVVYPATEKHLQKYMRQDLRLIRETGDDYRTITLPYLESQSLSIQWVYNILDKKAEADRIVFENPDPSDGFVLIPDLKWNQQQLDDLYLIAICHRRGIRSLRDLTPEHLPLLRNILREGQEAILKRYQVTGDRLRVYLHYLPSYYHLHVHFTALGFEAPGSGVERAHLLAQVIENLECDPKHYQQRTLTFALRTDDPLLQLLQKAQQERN

[2] = target: T2, m7GpppX diphosphatase (Homo sapiens, UniProt Q96C86); assay: Inhibition of recombinant flag-tagged DcpS (unknown origin) decapping activity assessed as reduction in hydrolysis of m7GpppG to m7G using unlabeled cap structure as substrate after 30 secs by PEI cellulose thin-layer chromatographic assay
T2 sequence (Q96C86 whole entry): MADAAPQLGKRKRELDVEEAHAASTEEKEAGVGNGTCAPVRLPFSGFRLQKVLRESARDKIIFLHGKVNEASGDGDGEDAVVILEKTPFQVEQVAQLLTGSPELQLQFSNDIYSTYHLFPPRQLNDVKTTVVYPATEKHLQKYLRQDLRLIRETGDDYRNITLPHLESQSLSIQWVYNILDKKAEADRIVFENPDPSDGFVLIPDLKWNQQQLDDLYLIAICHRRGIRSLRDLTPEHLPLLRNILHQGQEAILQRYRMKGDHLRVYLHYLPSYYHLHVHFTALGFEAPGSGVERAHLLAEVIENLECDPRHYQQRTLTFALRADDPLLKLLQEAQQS

[3] = target: T3, m7GpppX diphosphatase (Homo sapiens) (UniProt Q96C86); assay: Inhibition of recombinant flag-tagged DcpS (unknown origin) decapping activity assessed as hydrolysis of m7GpppG to m7G at 40 nM using unlabeled cap structure as substrate after 30 secs by PEI cellulose thin-layer chromatographic assay (reference value: 62%); design: scale not given: the % may be the effect or the level left
T3 sequence (whole entry): T2 sequence (Q96C86 whole entry)

[4] = target: T3, m7GpppX diphosphatase (Homo sapiens); assay: Inhibition of recombinant flag-tagged DcpS (unknown origin) decapping activity assessed as hydrolysis of m7GpppG to m7G at 8 nM using unlabeled cap structure as substrate after 30 secs by PEI cellulose thin-layer chromatographic assay (reference value: 62%); design: scale not given: the % may be the effect or the level left
[5] = target: T3, m7GpppX diphosphatase (Homo sapiens); assay: Inhibition of recombinant flag-tagged DcpS (unknown origin) decapping activity assessed as hydrolysis of m7GpppG to m7G at 1.6 nM using unlabeled cap structure as substrate after 30 secs by PEI cellulose thin-layer chromatographic assay (reference value: 62%); design: scale not given: the % may be the effect or the level left
[6] = target: T3, m7GpppX diphosphatase (Homo sapiens); assay: Inhibition of recombinant flag-tagged DcpS (unknown origin) decapping activity assessed as hydrolysis of m7GpppG to m7G at 200 nM using unlabeled cap structure as substrate after 30 secs by PEI cellulose thin-layer chromatographic assay (reference value: 62%); design: scale not given: the % may be the effect or the level left
[7] = target: T3, m7GpppX diphosphatase (Homo sapiens); assay: Binding affinity to recombinant human N-terminal GST-tagged DcpS expressed in baculovirus-infected Sf9 insect cells at 100 nM after 90 mins in presence of [125I]-streptavidin by microarray assay; conditions: tested as the 125I-labelled form
[8] = target: T1, m7GpppX diphosphatase; assay: Inhibition of DcpS in human SMN2 promoter driven mouse NSC-34 cell lysate assessed as increase in SMN2 expression after 18 hrs by beta-lactamase reporter gene assay
[9] = test system: Mus musculus; assay: Increase in SMN protein levels in spinal cord extracts isolated from SMNdelta7 SMA mouse model at 3 mg/kg/day administered orally beginning at PND04 for 5 days by immunoblot analysis relative to SMNdelta7 carrier mouse; assay type: functional
[10] = test system: Brain; assay: Drug level in fetal brain extracts isolated from timed-pregnant SMNdelta7 carrier mouse prenatal dams administered orally beginning at embryonic day 11.5 for 5 days by LC-MS-MS analysis; assay type: ADME, tissue-based; conditions: in vivo, po, 120 h
[11] = test system: Mus musculus; assay: (§1) Increase in Smn promoter activity in forebrain extracts isolated from Smn knockout mouse containing LacZ:NeoR cassette inserted into mouse Smn exon 2A assessed as optimal effective dose administered orally beginning at PND04 for 5 days by beta-galactosidase light chemiluminescent reporter gene assay; assay type: functional
[12] = test system: Mus musculus; assay: Increase in life span of timed-pregnant SMNdelta7 carrier mouse prenatal dams at 3 mg/kg/day administered orally beginning at embryonic day 11.5 continued after birth (reference value: 13.3 +/- 0.6 day); assay type: functional
[13] = test system: Mus musculus; assay: Increase in SMN protein levels in spinal cord extracts isolated from SMNdelta7 SMA mouse model at 3 mg/kg/day administered orally beginning at PND04 for 5 days by immunoblot analysis; assay type: functional
[14] = test system: Mus musculus; assay: Toxicity in SMNdelta7 carrier mouse assessed as adverse events at 0.1 to 30 mg/kg/day administered orally beginning at PND04 for 5 days; assay type: organism-based; conditions: in vivo, po, 120 h
[15] = test system: Mus musculus; assay: Induction in delay of onset of body mass loss in SMNdelta7 SMA mouse model at 3 mg/kg/day administered orally beginning at PND04, continued for duration of their lives by Kaplan-Meier plot method (reference value: 11.1 +/- 0.3 day); assay type: functional
[16] = test system: Mus musculus; assay: Induction in delay of onset of body mass loss in timed-pregnant SMNdelta7 carrier mouse prenatal dams at 3 mg/kg/day administered orally beginning at embryonic day 11.5 continued through birth and once the pups were born; assay type: functional
[17] = test system: Mus musculus; assay: as §1, with “spinal cord” for “forebrain”; assay type: functional
[18] = test system: Brain; assay: Drug uptake in brain of SMNdelta7 carrier mouse […] at 0.1 to 30 mg/kg/day administered orally beginning at PND04 for 5 days; assay type: ADME, organism-based; conditions: in vivo, po, 120 h
[19] = test system: Mus musculus; assay: Increase in life span of SMNdelta7 SMA mouse model at 3 mg/kg/day administered orally beginning at PND04, continued for duration of their lives by Kaplan-Meier plot method relative to untreated control; assay type: functional
[20] = test system: Mus musculus; assay: Increase in life span of timed-pregnant SMNdelta7 carrier mouse prenatal dams at 3 mg/kg/day administered orally beginning at embryonic day 11.5 continued through birth and once the pups were born; assay type: functional
[21] = test system: Mus musculus; assay: Effect on life span of SMNdelta7 SMA mouse model assessed as survival at 3 mg/kg/day administered orally on onset of motor neuron loss at PND09, continued for duration of their lives by Kaplan-Meier plot method (reference value: 14 +/- 0.4 day); assay type: functional
[22] = test system: Mus musculus; assay: Induction in delay of onset of body mass loss in timed-pregnant SMNdelta7 carrier mouse prenatal dams at 3 mg/kg/day administered orally only during prenatal period; assay type: functional

Q: `Nc1nc(N)c2c(OCC3CCN(CC(F)(F)F)CC3)cccc2n1` was tested. Which EC50 [1] did it give?
A: 223 nM

Q: With `C[n+]1cn([C@@H]2O[C@H](COP(=O)(O)OP(=O)([O-])OP(=O)(O)OC[C@H]3O[C@@H](n4cnc5c(=O)[nH]c(N)nc54)[C@H](O)[C@@H]3O)[C@@H](O)[C@H]2O)c2nc(N)[nH]c(=O)c21` as the molecule, how does the IC50 [2] read?
A: 30 nM

Q: Which EC50 [1] does the source give for `Nc1nc(N)c2c(OCC3CCN(CC4CCNCC4)CC3)cccc2n1` here?
A: 921 nM

Q: How did the EC50 [1] turn out when `Cn1ccnc1CN1CCC(COc2cccc3nc(N)nc(N)c23)CC1` was run?
A: 108 nM

Q: Which EC50 [1] does the source give for `Nc1nc(N)c2c(OCC3CCN(c4ccccc4Cl)CC3)cccc2n1` here?
A: 795 nM

Q: `CC(=O)Nc1nc(CN2CCC(COc3cccc4nc(N)nc(N)c34)CC2)cs1` was tested. Which EC50 [1] did it give?
A: 2540 nM

Q: How did the Activity [3] turn out when `C[n+]1cn([C@@H]2O[C@H](COP(=O)(O)OP(=O)([O-])OP(=O)(O)OC[C@H]3O[C@@H](n4cnc5c(=O)[nH]c(N)nc54)[C@H](O)[C@@H]3O)[C@@H](O)[C@H]2O)c2nc(N)nc(O)c21` was run?
A: 24%

Q: What about the Activity [4] of the same molecule?
A: 46%

Q: What about the Activity [5] of the same molecule?
A: 55%

Q: What about the Activity [6] of the same molecule?
A: 7%

Q: With `Nc1nc(N)c2c(OCC3CCN(C(=O)c4cccc(I)c4)CC3)cccc2n1` as the molecule, how does the Activity [7] read?
A: Active

Q: And the EC50 [8]?
A: 36 nM

Q: How did the Activity [9] turn out when `Nc1nc(N)c2c(OCC3CCN(Cc4ccccc4F)CC3)cccc2n1` was run?
A: 25%

Q: And the Drug uptake [10]?
A: Dose-dependent effect

Q: What about the Activity [11] of the same molecule?
A: 3 mg/kg/day

Q: And the Activity [12]?
A: 14.1 days

Q: What about the Activity [13] of the same molecule?
A: 70%

Q: What about the Activity [14] of the same molecule?
A: Non-Toxic

Q: What about the Activity [15] of the same molecule?
A: 12 days

Q: And the Activity [16]?
A: 15%

Q: And the Activity [17]?
A: 3 mg/kg/day

Q: And the Drug uptake [18]?
A: Dose-dependent effect

Q: What about the Activity [19] of the same molecule?
A: 21%

Q: And the Activity [20]?
A: 30%

Q: And the Survival [21]?
A: 14.9 days

Q: And the Activity [22]?
A: 10%
